Source: ChEMBL document CHEMBL5154916, “Multiparameter Optimization of Naphthyridine Derivatives as Selective α5-GABAA Receptor Negative Allosteric Modulators” (J Med Chem, 2022)

Key:
[1] = target: T1, GABA-A receptor; alpha-5/beta-3/gamma-2 (Homo sapiens, UniProt P18507+P28472+P31644); test: Displacement of [3H]Ro151788 from human recombinant alpha5beta3gamma2 GABAA receptor stably expressed in HEK293 cell membrane assessed as inhibition constant by radioligand binding assay; type: cell membranes
T1 sequence (P18507 whole entry): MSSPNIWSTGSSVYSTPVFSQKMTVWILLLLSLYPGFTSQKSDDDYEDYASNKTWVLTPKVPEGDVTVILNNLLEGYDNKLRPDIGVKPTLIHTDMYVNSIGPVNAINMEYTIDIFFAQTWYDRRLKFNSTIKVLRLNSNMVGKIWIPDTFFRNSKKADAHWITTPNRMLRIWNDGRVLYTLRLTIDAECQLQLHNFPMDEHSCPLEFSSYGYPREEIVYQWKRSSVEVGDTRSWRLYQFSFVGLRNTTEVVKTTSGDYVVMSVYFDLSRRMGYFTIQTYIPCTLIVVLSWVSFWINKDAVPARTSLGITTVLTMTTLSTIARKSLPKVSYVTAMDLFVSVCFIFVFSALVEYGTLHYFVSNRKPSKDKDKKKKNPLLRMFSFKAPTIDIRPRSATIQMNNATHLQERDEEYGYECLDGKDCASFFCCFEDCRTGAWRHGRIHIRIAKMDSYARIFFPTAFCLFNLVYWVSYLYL
T1 sequence (P28472 whole entry): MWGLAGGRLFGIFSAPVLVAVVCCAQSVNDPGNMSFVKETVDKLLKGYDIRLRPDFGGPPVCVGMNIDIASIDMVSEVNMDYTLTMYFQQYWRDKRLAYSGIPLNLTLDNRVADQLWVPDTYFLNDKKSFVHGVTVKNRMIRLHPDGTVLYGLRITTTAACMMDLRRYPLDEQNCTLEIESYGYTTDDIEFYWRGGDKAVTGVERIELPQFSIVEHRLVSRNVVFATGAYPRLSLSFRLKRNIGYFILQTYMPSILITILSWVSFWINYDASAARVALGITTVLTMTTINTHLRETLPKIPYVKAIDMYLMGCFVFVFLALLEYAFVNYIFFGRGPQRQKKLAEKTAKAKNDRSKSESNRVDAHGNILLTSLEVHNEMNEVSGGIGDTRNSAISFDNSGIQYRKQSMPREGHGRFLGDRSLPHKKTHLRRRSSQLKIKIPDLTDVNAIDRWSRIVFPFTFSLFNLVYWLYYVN
T1 sequence (P31644 whole entry): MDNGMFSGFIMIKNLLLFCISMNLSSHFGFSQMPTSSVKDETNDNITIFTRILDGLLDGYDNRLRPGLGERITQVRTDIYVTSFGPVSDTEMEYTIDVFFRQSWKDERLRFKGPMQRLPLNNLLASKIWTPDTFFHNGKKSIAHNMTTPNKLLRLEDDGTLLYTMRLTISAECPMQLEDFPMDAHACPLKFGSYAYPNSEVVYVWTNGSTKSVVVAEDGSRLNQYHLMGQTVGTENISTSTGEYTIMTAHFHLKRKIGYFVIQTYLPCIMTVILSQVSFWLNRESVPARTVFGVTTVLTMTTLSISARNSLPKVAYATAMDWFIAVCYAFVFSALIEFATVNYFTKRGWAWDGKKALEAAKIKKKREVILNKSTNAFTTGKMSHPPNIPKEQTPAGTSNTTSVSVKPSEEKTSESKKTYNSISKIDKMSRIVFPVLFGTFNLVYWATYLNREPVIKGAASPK

[2] = target: T2, GABA-A receptor; alpha-5/beta-3/gamma-2 (Homo sapiens) (UniProt P18507+P28472+P31644); test: Negative allosteric modulation activity at human recombinant alpha5beta3gamma2 GABAA receptor stably expressed in HEK293 cells assessed as modulation at alpha5 subunit at 1 uM by Patch clamp method; type: cell-based; conditions: filed as negative allosteric modulator
[3] = target: T2, GABA-A receptor; alpha-5/beta-3/gamma-2 (Homo sapiens); test: Negative allosteric modulation activity at human recombinant alpha5beta3gamma2 GABAA receptor stably expressed in HEK293 cells assessed as modulation at alpha5 subunit at 10 uM by Patch clamp method; type: cell-based
[4] = target: GABA-A receptor; alpha-1/beta-3/gamma-2 (Homo sapiens) (UniProt P14867+P18507+P28472); test: Negative allosteric modulation activity at human recombinant alpha1beta3gamma2 GABAA receptor stably expressed in HEK293 cells assessed as modulation at alpha1 subunit at 10 uM by Patch clamp method; type: cell-based; conditions: filed as negative allosteric modulator
[5] = target: Voltage-gated inwardly rectifying potassium channel KCNH2 (Homo sapiens, UniProt Q12809); test: Inhibition of hERG expressed in CHO cells stably at -80 mV holding potential by automated patch clamp method; type: toxicity, cell-based
[6] = Metabolic stability in human liver microsomes assessed as intrinsic clearance at 2.5 uM; type: ADME, Microsome; conditions: read-out: CLH
[7] = Metabolic stability in Wistar rat liver microsomes assessed as intrinsic clearance at 2.5 uM; type: ADME, Microsome; conditions: read-out: CLH
[8] = Ratio of drug level in brain to plasma in Wistar rat at 3 mg/kg, po measured at 1.5 hr post dose; type: ADME, organism-based; conditions: brain and plasma, read-out: BPR
[9] = Passive permeability in human Caco-2 cells assessed as permeability damage ratio at 10 uM by HPLC-UV analysis; type: ADME, cell-based; conditions: caco-2, 10 µM
[10] = Apparent permeability in human Caco-2 cells at 10 uM by HPLC-UV analysis; type: ADME, cell-based
[11] = Clearance in Wistar rat plasma at 1 mg/kg, iv by HPLC-MS/MS analysis; type: ADME, organism-based
[12] = Volume of distribution in Wistar rat plasma at 1 mg/kg, iv by HPLC-MS/MS analysis; type: ADME, organism-based
[13] = Half life in Wistar rat total plasma at 1 mg/kg, iv by HPLC-MS/MS analysis; type: ADME, organism-based
[14] = Half life in Wistar rat total plasma at 1 mg/kg, po by HPLC-MS/MS analysis; type: ADME, organism-based
[15] = Tmax in Wistar rat total plasma at 1 mg/kg, po by HPLC-MS/MS analysis; type: ADME, organism-based
[16] = AUC (0 to infinity) in Wistar rat total plasma at 1 mg/kg, iv by HPLC-MS/MS analysis; type: ADME, organism-based; design: time infinity, dose 1 mg/kg, route iv
[17] = AUC (0 to infinity) in Wistar rat total plasma at 1 mg/kg, po by HPLC-MS/MS analysis; type: ADME, organism-based; design: time infinity, dose 1 mg/kg, route po
[18] = Cmax in Wistar rat total plasma at 1 mg/kg, po by HPLC-MS/MS analysis; type: ADME, organism-based; design: dose 1 mg/kg, route po
[19] = Bioavailability in Wistar rat total plasma at 1 mg/kg, iv by HPLC-MS/MS analysis; type: ADME, organism-based
[20] = Ratio of drug level in brain to plasma in Wistar rat at 1 mg/kg, iv by HPLC-MS/MS analysis; type: ADME, organism-based; conditions: brain and plasma, read-out: BPR
[21] = filed as negative allosteric modulator

Voltage-gated inwardly rectifying potassium channel KCNH2, sequence (Q12809 whole entry): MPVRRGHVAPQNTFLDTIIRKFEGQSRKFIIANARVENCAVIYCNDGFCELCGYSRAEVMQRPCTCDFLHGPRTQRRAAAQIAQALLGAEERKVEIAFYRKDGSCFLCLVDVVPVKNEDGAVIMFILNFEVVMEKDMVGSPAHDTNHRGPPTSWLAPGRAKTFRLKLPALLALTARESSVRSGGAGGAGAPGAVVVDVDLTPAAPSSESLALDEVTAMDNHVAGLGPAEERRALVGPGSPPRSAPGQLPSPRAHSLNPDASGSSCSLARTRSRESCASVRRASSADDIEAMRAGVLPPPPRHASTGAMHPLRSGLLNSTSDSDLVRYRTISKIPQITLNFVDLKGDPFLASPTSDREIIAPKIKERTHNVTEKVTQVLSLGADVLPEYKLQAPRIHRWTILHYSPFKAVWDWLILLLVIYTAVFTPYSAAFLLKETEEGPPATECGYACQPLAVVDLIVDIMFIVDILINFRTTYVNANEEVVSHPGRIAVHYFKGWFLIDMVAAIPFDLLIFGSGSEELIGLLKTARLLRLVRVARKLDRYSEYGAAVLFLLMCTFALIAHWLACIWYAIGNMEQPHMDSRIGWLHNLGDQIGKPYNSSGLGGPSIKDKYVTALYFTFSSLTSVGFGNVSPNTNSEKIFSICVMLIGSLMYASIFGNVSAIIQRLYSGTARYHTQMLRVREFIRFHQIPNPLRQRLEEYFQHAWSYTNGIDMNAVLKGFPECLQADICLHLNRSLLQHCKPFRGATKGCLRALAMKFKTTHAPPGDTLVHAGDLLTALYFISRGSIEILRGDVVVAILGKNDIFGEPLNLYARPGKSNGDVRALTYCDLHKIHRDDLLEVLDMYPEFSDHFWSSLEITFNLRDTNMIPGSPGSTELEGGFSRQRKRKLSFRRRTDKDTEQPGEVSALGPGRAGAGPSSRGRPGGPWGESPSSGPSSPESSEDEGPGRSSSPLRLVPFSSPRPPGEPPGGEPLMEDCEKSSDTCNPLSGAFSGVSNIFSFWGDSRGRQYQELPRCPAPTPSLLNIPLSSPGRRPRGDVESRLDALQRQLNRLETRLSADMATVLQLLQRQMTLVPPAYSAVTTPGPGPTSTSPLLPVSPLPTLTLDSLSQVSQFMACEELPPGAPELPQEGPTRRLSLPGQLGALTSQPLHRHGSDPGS

| Compound | Ki [1] [nM] | Activity [2] [%] | Activity [3, 21] [%] | Activity [4] [%] | IC50 [5] [nM] | microsomal CLint at 2.5 µM [6] [µL/min/mg] | microsomal CLint at 2.5 µM [7] [µL/min/mg] | Kp at 1.5 h [8] | Ratio [9] | Papp at 10 µM [10] [×10⁻⁶ cm/s] | further results |
| --- | --- | --- | --- | --- | --- | --- | --- | --- | --- | --- | --- |
| Cc1nnn(-c2ccc(F)cc2)c1COc1ccc2c(n1)CCN(C(=O)C1CCOC1)C2 (configuration not stated) | 42 | -34 | -39 | -7 | 30000 | 13 | 29 | 0.21 | 1.1 | 44.6 | – |
| Cc1nnn(-c2ccc(F)cc2)c1COc1ccc2c(n1)CCN(CCS(C)(=O)=O)C2=O | 55 | -41 | – | -16 | 30000 | 1 | 9 | 0.02 | 3.2 | 22 | Activity [3]: -51% |
| CC(=O)N1CCc2nc(OCc3c(C)nnn3-c3ccc(F)cc3)ccc2C1 | 28 | -25 | -36 | 0 | > 30000 | 18 | 26 | 0.45 | 0.74 | 52.8 | clearance [11]: 77.9 mL/min/kg; Vd [12]: 1.36 L/kg; half-life [13]: 12 min; half-life [14]: 42.6 min; Tmax [15]: 30 min; AUC(0-inf) [16]: 218 ng·h/mL; AUC(0-inf) [17]: 20.4 ng·h/mL; Cmax [18]: 21.4 ng/mL; bioavailability [19]: 9.4%; Kp [20]: 0.46 |
| Cc1nnn(-c2ccc(F)cc2)c1COc1ccc2c(n1)CCN(C(=O)NC1CC(=O)N(C)C1)C2 (configuration not stated) | 38 | -31 | -35 | -3 | > 30000 | 4 | 11 | – | 134 | 0.33 | – |
| Cc1nnn(-c2ccc(F)cc2)c1COc1ccc2c(n1)CCN(C(=O)C1CCCO1)C2 (configuration not stated) | 39 | -30 | -43 | -8 | > 30000 | 15 | 46 | 0.31 | 0.92 | 47.1 | – |
| Cc1nnn(-c2ccc(F)cc2)c1COc1ccc2c(n1)CCN(C(=O)NC1CCOC1)C2 (configuration not stated) | 28 | -32 | -34 | – | 21000 | 10 | 39 | – | 4.7 | 18.7 | – |
| Cc1onc(-c2ccc(F)cc2)c1COc1ccc2c(n1)CCN(C1CCOC1)C2=O (configuration not stated) | 8 | -25 | -39 | -10 | 3200 | 29 | 139 | – | – | – | – |
| Cc1nnn(-c2ccc(F)cc2)c1COc1ccc2c(n1)CCN(C(=O)C1CC(=O)N(C)C1)C2 (configuration not stated) | 35 | -32 | -47 | – | 30000 | 1 | 4 | – | 8.9 | 7.54 | – |
| Cc1onc(-c2ccc(F)cc2)c1COc1ccc2c(n1)CCNC2=O | 4.1 | -25 | -42 | 2 | 10000 | 14 | 227 | – | – | – | – |
| Cc1onc(-c2ccc(F)cc2)c1COc1ccc2c(n1)CCN(C(=O)C1CCOCC1)C2 | 9.2 | -20 | -37 | -9 | 5700 | 10 | 93 | – | – | – | – |
| Cc1onc(-c2ccc(F)cc2)c1COc1ccc2c(n1)CCN(C(=O)C1CCOC1)C2 (configuration not stated) | 7 | -24 | -40 | -14 | 3600 | 24 | 158 | – | – | – | – |
| Cc1onc(-c2ccc(F)cc2)c1COc1ccc2c(n1)CCN(CCS(C)(=O)=O)C2=O | 7.7 | -33 | -46 | -12 | 1100 | 7 | 89 | – | 1.1 | 49.3 | – |
